# Data: PubChem BioAssay (NCI)
#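 Each compound was tested at five concentrations against cells in 96-well plates for 48 hours. TGI: total growth inhibition.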
# Assays:
# Assay in all cases: growth of human tumour cells (NCI), 48 h
# HCT-116 colon = test system: HCT-116 colon
# OVCAR-3 ovarian = test system: OVCAR-3 ovarian
# SK-MEL-5 melanoma = test system: SK-MEL-5 melanoma
# U251 CNS = test system: U251 CNS
# NCI-H23 lung = test system: NCI-H23 lung
# HCC-2998 colon = test system: HCC-2998 colon
# EKVX NSCLC = test system: EKVX NSCLC
# SF-295 CNS = test system: SF-295 CNS
# PC-3 prostate = test system: PC-3 prostate
# SNB-75 CNS = test system: SNB-75 CNS
SMILES,TGI (HCT-116 colon),TGI (OVCAR-3 ovarian),TGI (SK-MEL-5 melanoma),TGI (U251 CNS),TGI (NCI-H23 lung),TGI (HCC-2998 colon),TGI (EKVX NSCLC),TGI (SF-295 CNS),TGI (PC-3 prostate),TGI (SNB-75 CNS)
CCCCCCNC(=O)CCC(NC(=O)c1ccc(N(C)Cc2cnc3nc(N)nc(N)c3n2)cc1)C(=O)NCCCCCC (stereo not given),> 100 µM,> 100 µM,> 100 µM,> 100 µM,> 100 µM,> 100 µM,> 100 µM,30.3 µM,> 100 µM,> 100 µM
CSCCCS/C1=C/CCCCCCCCCC1,> 100 µM,> 100 µM,> 100 µM,> 100 µM,> 100 µM,> 100 µM,> 100 µM,> 100 µM,> 100 µM,> 100 µM
O=c1oc2ccc([N+](=O)[O-])cc2c(Nc2ccc3c(c2)Sc2ccccc2O3)c1[N+](=O)[O-],30.5 µM,31 µM,41.1 µM,33.6 µM,39.1 µM,26.4 µM,68.8 µM,94.3 µM,40.8 µM,79 µM
COC(=O)/C=C\C(C#N)(C#N)N=Cc1ccccc1,3.4 µM,4.97 µM,28 µM,35.6 µM,25.3 µM,35.1 µM,27.3 µM,36.1 µM,13.1 µM,14.5 µM
COc1cc(C2SC(C)C(=O)N2c2ccc(-c3csc(NS(=O)(=O)c4ccc(Cl)c(OC)c4)n3)cc2)ccc1O (stereo not given),> 100 µM,> 100 µM,> 100 µM,> 100 µM,53.6 µM,,,> 100 µM,> 100 µM,61 µM
COc1ccc(/C=C/C(=O)c2cc(C(C)(C)C)c(O)c(C(C)(C)C)c2)cc1OC,48.6 µM,> 100 µM,20.7 µM,29.8 µM,> 68.9 µM,7.74 µM,> 100 µM,> 71.1 µM,> 46.4 µM,13.5 µM
CCOC(=O)c1nc2ccccc2nc1Oc1ccc(C(=O)OC)cc1,> 100 µM,> 100 µM,> 100 µM,> 100 µM,,,> 100 µM,> 100 µM,> 100 µM,> 100 µM
COC(=O)CCc1ccc2c(c1)C(=O)CC2,> 100 µM,> 100 µM,> 100 µM,> 100 µM,> 100 µM,> 100 µM,> 100 µM,> 100 µM,> 100 µM,99.9 µM
O=[N+]([O-])c1ccc(C(Nc2ccccc2)P(c2ccccc2)c2ccccc2)cc1 (stereo not given),> 100 µM,,> 100 µM,> 100 µM,> 100 µM,,> 100 µM,> 100 µM,> 100 µM,> 100 µM
O=C(NC1CCCCC1)c1cc2ccccc2cc1O,47.6 µM,,47.9 µM,> 100 µM,,58.8 µM,> 100 µM,> 100 µM,99 µM,> 100 µM
O=[N+]([O-])c1ccccc1S(=O)(=O)c1ccccc1,> 100 µM,> 100 µM,> 100 µM,> 100 µM,> 100 µM,> 100 µM,> 100 µM,> 100 µM,,> 100 µM
Brc1ccc2c3c1[C@H]1O[C@H]1c1cccc(c1-3)[C@@H]1O[C@H]21,37.8 µM,,30.2 µM,37.1 µM,38.7 µM,,36.5 µM,29.3 µM,33.4 µM,26.3 µM
O=c1cc(NNc2cccc(F)c2)[nH]c(=O)[nH]1,31 µM,30.1 µM,> 100 µM,31 µM,> 100 µM,> 100 µM,,> 100 µM,> 100 µM,> 100 µM
CC1(C)C(=O)c2ccccc2OC1N1CCN(C2Oc3ccccc3C(=O)C2(C)C)CC1 (stereo not given),> 100 µM,> 100 µM,> 100 µM,> 100 µM,> 100 µM,> 100 µM,> 100 µM,,> 100 µM,> 100 µM
Cc1ccc(-n2cc(-c3ccc(Cl)cc3)c3c(N/N=C4\SCC(=O)N4C)ncnc32)cc1,38.4 µM,> 100 µM,15.5 µM,36.5 µM,45.7 µM,,> 100 µM,9.37 µM,10.9 µM,
CNC(=S)N/N=C(\C(=N/NC(=S)NC)c1ccccn1)c1ccccn1,> 100 µM,,> 67.6 µM,> 100 µM,> 68.5 µM,> 100 µM,> 100 µM,> 83.2 µM,> 100 µM,> 92.6 µM
Cc1ccc2c(=O)c(C(=O)Nn3c(C)csc3=S)c[nH]c2n1,> 100 µM,> 100 µM,> 100 µM,> 100 µM,> 100 µM,,> 100 µM,> 100 µM,> 100 µM,
Oc1ccc(Cl)cc1-c1cc(-c2ccccc2)nc(NCN2CCCCC2)n1,> 100 µM,> 100 µM,> 100 µM,> 100 µM,> 100 µM,> 100 µM,> 100 µM,,> 100 µM,> 100 µM
CC(=O)c1ccccc1NCC(=O)Nn1cnc2ccc(S(=O)(=O)Nc3ccccc3C(C)=O)cc2c1=O,> 100 µM,> 100 µM,,> 100 µM,> 100 µM,> 100 µM,> 100 µM,> 100 µM,> 100 µM,> 100 µM
O=C(O)C[C@@H]1[C@@H](O)[C@@H](O)CN2C(=O)c3ccccc3[C@H]12,> 100 µM,,> 100 µM,> 100 µM,> 100 µM,> 100 µM,> 100 µM,> 100 µM,> 100 µM,> 100 µM
CCOC(=O)c1sc2nc(SC)nc3c2c1NCN3c1ccc(F)c(F)c1,54.6 µM,19.5 µM,> 100 µM,30.8 µM,75.3 µM,> 64 µM,> 100 µM,65.9 µM,> 59.8 µM,
CC(=O)OCC1OC(OCCCCCCO)C(OC(C)=O)C(OC(C)=O)C1OC(C)=O (stereo not given),> 100 µM,> 100 µM,,> 100 µM,> 100 µM,> 100 µM,> 100 µM,> 100 µM,> 100 µM,> 100 µM
COc1ccc2c(c1)C/C(=C\c1cccc3ccccc13)C2=O,,50.4 µM,> 100 µM,81.3 µM,24.2 µM,> 100 µM,> 100 µM,,> 100 µM,> 100 µM
